85 compounds from a melting point compilation (Tetko et al.; mined from patent text by program, amines drawn as free bases though some values may be those of a salt) can be followed below.

Molecules are shown by their SMILES. Some results are limits rather than exact numbers.

In turn, `O=C1c2cccc3cc4ccccc4c(c23)C(=O)N1CCNCCCNCCN1C(=O)c2cccc3cc4ccccc4c(c23)C1=O` returned a melting point of 191 °C.

Consider `COc1cc(-c2cnc3[nH]cc(C(=O)NCC(C)(C)CO)c3n2)cc(OC)c1OC`, for which the melting point lay within 224 to 225 °C.

In turn, `COC(=O)c1sc2cncc(Oc3ccc(Cl)cc3)c2c1C` gave a melting point of 140 to 141 °C.

In turn, `CC1(c2ccccc2)Cc2cc(CC(=O)O)c(Cl)c(Cl)c2C1=O` (stereo not given) had a melting point of 133 to 135 °C.

The compound `O=C1NC(=O)c2c1c(-c1c(O)cccc1Cl)cc1[nH]c3ccc(O)cc3c21` came in with a melting point of 228 to 235 °C.

`CCc1nnc(N2N=C(c3ccc([N+](=O)[O-])cc3)c3cc4c(cc3C[C@H]2C)OCO4)s1` returned a melting point of 105 °C.

As for `CC(C)c1ccc(S(=O)(=O)Nc2ccc(N3CCC(NCC(O)COc4ccc(O)c(S(C)=O)c4)CC3)nc2)cc1` (stereo not given), the melting point lay within 128 to 130 °C.

`O=C1CC(CO)C(c2ccc(N3CCOCC3)c(Cl)c2)=NN1` (stereo not given) showed a melting point of 173 to 175 °C.

On to `CCCc1nc2c(N)nc3cc(OCc4cccc([N+](=O)[O-])c4)ccc3c2n1CC(C)C`, for which the melting point lay within 175 to 176 °C.

Turning to `CCN(CC)C(=O)C(C)(C)n1cc(C)c(-c2ccccc2)n1`, the melting point was in the range of 50 to 52 °C.

`Fc1ccc(-c2cc(SC(F)(F)C(F)F)[nH]c2-c2ccc(F)cc2)cc1` showed a melting point of 70.5 to 71 °C.

`O=C(NCc1nccs1)c1cc(N2CCN(Cc3ccc(F)cc3)C2=O)n[nH]1` yielded a melting point of 272 to 274 °C.

The compound `Cc1cn(C(C)C(=O)N(C)C)nc1-c1ccco1` (stereo not given) displayed a melting point of 93 to 95 °C.

In turn, `C[C@]12CCC(=O)N[C@@H]1CCc1cc(Sc3cnc4ccccc4c3)ccc12` had a melting point of 168 to 170 °C.

Compound `OCCc1ccc(OCCCCl)cc1` gave a melting point of 49 to 50 °C.

Take `CS(=O)(=O)Nc1ccc(Cn2c(=S)n(Cc3ccc(OC(F)(F)F)cc3)c3ccccc32)cc1`: the melting point lay within 167 to 170 °C.

For `CCCCn1c(NNC(=S)NC(C)=O)cc(=O)n(CCC)c1=O`, the melting point was in the range of 149 to 152 °C.

Consider `c1ccc(CN(c2ccccc2)c2ccc(N(Cc3ccccc3)c3ccccc3)cc2)cc1`, for which the melting point fell in the range of 149 to 151 °C.

Consider `Cn1c(CCN2CCC(c3ccccc3)CC2)nc2ccc3ccccc3c21`, for which the melting point was 182 °C.

In the case of `COC(=O)[C@H]1Cc2cc(SC)ccc2C(=O)[C@H](C)S1` (relative stereo), the melting point lay within 105 to 106 °C.

In the case of `CCCCNS(=O)(=O)NC(=O)OCc1ccc(OCCOC)cc1Oc1ncc(C(F)(F)F)cc1Cl`, the melting point was 164 to 165 °C.

As to `CCCc1nc(N)c(C#N)[nH]1`, the melting point lay within 117 to 119 °C.

The compound `O=C(O)c1ccc(-c2cnc3c(c2)N(Cc2cc(F)ccc2F)C(=O)CN3)cc1` yielded a melting point greater than 300 °C.

`Cc1noc(-c2ncn3c2[C@@H]2CCN2C(=O)c2c(Cl)cccc2-3)n1` showed a melting point of 239 to 240 °C.

`CCCNC(=O)C(CCC(=O)NCCCOC(C)=O)NC(=O)OCc1ccccc1` (stereo not given) registered a melting point of 98 to 102 °C.

Compound `CC(C)c1cccc(C(C)C)c1NC(=O)CNC(c1ccccc1)c1ccc(Br)cc1` (stereo not given) returned a melting point of 154 to 155 °C.

Compound `NC(=O)CCC(CCCCNS(=O)(=O)c1ccc(Cl)cc1)CCCc1cccnc1` (stereo not given) registered a melting point of 100 to 102 °C.

Consider `O=S1(=O)c2ccccc2Oc2cc(OCC(F)(F)F)ccc21`, for which the melting point fell in the range of 165 to 166 °C.

Compound `Cc1ccc(N2C(=O)C(O)=C(C(=O)c3ccc(C(C)C)cc3)C2c2ccc(Cn3cnnn3)cc2)nn1` (stereo not given) displayed a melting point greater than 300 °C.

For `CCCCCCCCCCCCCCCCCCOc1cc(OCCCOc2cccc(Br)c2)cc(N(CC(=O)OC)CC(=O)OC)c1`, the melting point is 48 to 50 °C.

The compound `CN(C)Cc1ccc(CSCCNc2ncc(N)c(=O)[nH]2)o1` came in with a melting point of 127 to 132 °C.

Take `COC(=O)c1cc2c(Sc3ccc(C)cc3)cncc2s1`: the melting point lay in the range of 116 to 119 °C.

As for `CC(C)(C)OC(=O)N[C@H](Cc1ccc(C(F)(F)F)cc1)[C@@H](O)c1ccncc1` (racemic), the melting point was 198 to 200 °C.

For `COc1ccccc1O[C@@H]1CN(Cc2ccccc2)C[C@H]1O` (relative stereo), the melting point lay within 115 to 117 °C.

The compound `Cn1c(N2CCOCC2)nc(C(=O)NCc2ccc(F)c(Cl)c2)c(O)c1=O` returned a melting point of 170 to 171 °C.

`Cc1ccc(Br)cc1Cn1c(C=O)nn(C)c1=O`: the melting point was found to be 108 °C.

The compound `CCC1=C(C)CN(C(=O)NCC2CCOc3cc(O)c(S(N)(=O)=O)cc32)C1=O` (stereo not given) showed a melting point of 175 °C.

`CS(=O)(=O)c1ccc(C(=O)c2cnoc2C2CC2)c2c1OC(F)(F)O2` showed a melting point of 164 to 165 °C.

Regarding `COc1cc2c3cc(OC)c(OC)cc3n(C(=O)c3ccccc3)c2cc1OC`, the melting point is 181 to 182 °C.

Compound `NCCCc1nc2c([nH]1)-c1ccccc1N(C(=O)c1ccc(NC(=O)c3ccccc3-c3ccccc3)cc1)CC2` gave a melting point of 220 to 223 °C.

On to `CC1(C)C(Cl)C(=O)C1CC(Br)(Br)Br` (stereo not given), for which the melting point fell in the range of 87 to 89 °C.

In turn, `CC(=O)N[C@@H]1CCN(S(=O)(=O)c2ccc(Cl)c(CBr)c2Cl)C1` registered a melting point of 222 °C.

`CC(C)(C)C(=O)NS(=O)(=O)c1cccc(N)c1`: the melting point lay within 147 to 150 °C.

For the compound `O=C(Nc1ccc(-c2ccc(-c3ccc(NC(=O)c4ccccc4)cc3)o2)cc1)c1ccccc1`, the melting point lay in the range of 312 to 314 °C.

As to `Cc1cc2c(cc1Br)C(O)(c1ccccn1)CC(C)(C)CO2` (stereo not given), the melting point turned out to be 147 °C.

As for `O=C(O)c1cc(F)c(O)nc1Nc1ccc(F)cc1F`, the melting point is 213 to 216 °C.

Compound `CN(C)c1cccc(N(C)C)c1NC(=O)N(Cc1ccc(O)cc1)CC1(c2ccccn2)CCCCC1` showed a melting point of 162 to 166 °C.

Regarding `N#CN=C(Nc1cccnc1)Oc1ccccc1`, the melting point fell in the range of 154 to 155 °C.

With `CC(O[Si](C)(C)C(C)(C)C)C1C(=O)NC1C1CCCC(OCCCl)C1O` (stereo not given), the melting point was in the range of 97 to 100 °C.

On to `Cc1cc(O)c(S(=O)CC2CCCCC2)c(=O)o1` (stereo not given), for which the melting point fell in the range of 132 to 134 °C.

Compound `CC(=O)Oc1cccc(C(=Cc2ccccc2)c2cccc(OC(C)=O)c2OC(C)=O)c1OC(C)=O` registered a melting point of 163 °C.

With `O=Cc1c(-c2ccccc2Br)ccc2c1OCO2`, the melting point was in the range of 89 to 91 °C.

Turning to `CC(C)CCOCC(O)C(CC(C)C)NC(=O)C(Cc1c[nH]cn1)NC(=O)C(CC(=O)NCCc1ccccc1)Cc1cccc2ccccc12` (mixture of isomers), the melting point is 73 to 76 °C.

Consider `CCOC(=O)c1cn(-c2nc(NC(C)(C)C)c(F)cc2F)c2c(Cl)c(F)c(F)c([N+](=O)[O-])c2c1=O`, for which the melting point lay within 215 to 217 °C.

Consider `NC(=O)N(O)Cc1ccc(Br)s1`, for which the melting point lay in the range of 145 to 147 °C.

The compound `CCCCCCCCCCCCCCCCCCNCC(O)CO` (stereo not given) returned a melting point of 81 to 83 °C.

`O=C(NC[C@@H](C(=O)NO)N1CCOCC1)c1ccc(OCc2ccnc(-c3cccc(C(F)(F)F)c3)c2)cc1` showed a melting point of 151 °C.

In turn, `CNC(NCc1ccc(Cl)nc1)=C(C(=S)NS(C)(=O)=O)[N+](=O)[O-]` had a melting point of 129 to 131 °C.

Regarding `CCCOC(=O)Nc1cn2nc(OCc3cc(C)ccc3C)ccc2n1`, the melting point was 196 to 197 °C.

`COc1ccc(-c2c(C(=O)O)c(=O)[nH]c3ccc(C)cc23)cc1OC` displayed a melting point of 240 to 241 °C.

On to `COc1cc2c(cc1OC)N(C)C(=O)CN=C2c1cccc(-c2ccc(Cl)cc2)c1`, for which the melting point amounted to 131 °C.

As for `O=C1C(O)OC=CN1Cc1ccccc1` (stereo not given), the melting point was found to be 134 °C.

Take `O=c1oc(-c2ccccc2)nc2cccc(Cl)c12`: the melting point was in the range of 151 to 153 °C.

`Cc1ncn(-c2ccccc2CNC(=O)c2nc3n(c(=O)c2OCc2ccccc2)CCOC3(C)C)n1` had a melting point of 213 to 214 °C.

In turn, `CCCc1c2nc(C(=O)OC)cc(Cl)c2cc2c(=O)cc(C(=O)OCC)oc12` returned a melting point of 176 to 178 °C.

`O=[N+]([O-])c1ccc(-c2nc(-c3ccco3)no2)cc1` showed a melting point of 168 to 170 °C.

As for `CC(C)(C)OC(=O)/C(=C/c1ccc(Br)cc1)C(=O)c1ccccc1O`, the melting point was in the range of 98 to 100 °C.

The compound `COc1ccc(OCCCCCC(=O)O)c(C=O)c1` registered a melting point of 104 to 106 °C.

Take `O=S(=O)(c1c(F)c(F)c(F)c(F)c1F)N1CCCC(c2ccc(F)cc2)=N1`: the melting point was 140 to 141 °C.

Consider `OC1CSC(Oc2ccc(-c3cccnc3F)nc2)C(O)C1O` (stereo not given), for which the melting point is 181 °C.

In turn, `COCN(c1noc(C)c1C)S(=O)(=O)C1(Br)C=CC=CC1` (stereo not given) showed a melting point of 71 to 72 °C.

`CC(C)c1nccn1-c1nc(-c2ccc(Cl)cc2)c(CCC(=O)O)o1` showed a melting point of 173 to 174 °C.

The compound `COc1ccc(C(Cl)=C(C#N)c2ccc(OC)cc2)cc1` showed a melting point of 140 to 142 °C.

`O=C(O)c1cc(OCc2ccccn2)c(C(=O)c2ccccc2)c([N+](=O)[O-])c1` showed a melting point of 224 to 225 °C.

In turn, `CCCCCCCCOC(=O)c1cc(C(C)(C)C)c(OC(=O)c2cc(C(C)(C)C)c(O)c(C(C)(C)C)c2)c(C(C)(C)C)c1` showed a melting point of 94 to 97 °C.

For `CC(=O)NCC1CN(c2ccc(N3CCN(c4ccc([N+](=O)[O-])s4)CC3)c(F)c2)C(=O)O1` (stereo not given), the melting point fell in the range of 171 to 174 °C.

Compound `O=COC[C@@H]1C(=O)N[C@H]1SC(c1ccccc1)(c1ccccc1)c1ccccc1` (relative stereo) returned a melting point of 143 to 144 °C.

`CCOc1cc(C=CC(C)=O)ccc1OC` came in with a melting point of 95 to 96 °C.

Consider `OCCOc1c(Br)cc(Br)c2cccnc12`, for which the melting point is 128 to 131 °C.

`CC(c1ccc(NC=O)c(N)c1)n1ccnc1` (stereo not given) yielded a melting point of 212 °C.

For the compound `Nc1nc2ccccc2c2c1ncn2CC1(O)CCCC1`, the melting point was 254 to 255 °C.

`CC(C)(C)OC(=O)N1CC[C@@H](C(=O)N[C@@H](CC(=O)OCc2ccccc2)C(=O)N[C@@H](Cc2ccccc2)C(=O)OCc2ccccc2)C1` came in with a melting point of 84 to 85 °C.

In turn, `Clc1cccc2c3c([nH]c12)CCCC3` showed a melting point of 144 to 146 °C.

For the compound `Cc1cc(=O)oc2cc(NC(=O)CO)ccc12`, the melting point is 253 to 254 °C.

`OC(COCc1ncc[nH]1)c1ccc2sccc2c1` (stereo not given) returned a melting point of 128 to 129 °C.

By melting point is commonly meant the temperature of the solid-liquid transition.
